In patent publication EP0041644B1 (priority 1980, dated 1981):

Experiments:
[1] = system: B16 Melanoma; assay: B16 Melanoma - Test 1 (ip tumor brei); type: in vivo, mice; settings: for Survivors Day 5(60): QD 1→9, vehicle Saline
[2] = system: B16 Melanoma; assay: B16 Melanoma - Test 2 (ip tumor brei); type: in vivo, mice; settings: QD +9
[3] = system: B16 Melanoma; assay: B16 Melanoma - Test 3 (sc trocar fragments); type: in vivo, mice
[4] = system: L-1210 Leukemia; assay: L-1210 Leukemia (Table VIII)
Experimental: The sodium and ammonium salts of the present invention were tested against transplantable mouse tumors as indicated below. The methodology used generally followed the protocols of the National Cancer Institute (Cancer Chemotherapy Rep., Part 3, 3, 1-103 (1972). The essential experimental details are given at the bottom of the following tables.

[5] = system: L1210 Leukemia; assay: L1210 Leukemia - Test 1 (survival of tumor-bearing mice); type: in vivo; settings: for Survivors Day 5(30): qd 1→9, in saline

Which “Survivors Day 5(60)” value ([1]; 1.6 mg/kg/day ip) does the source give for `N.N.[Cl][Pt][Cl]` [Cis-DDP, cis-diammine dichloroplatinum (II)] here?
The value was 9/9.

What about the “Survivors Day 5(60)” value ([1]; 2.0 mg/kg/day ip) of the same compound?
The value was 8/10.

What about the mice cured ([1]; ip B16, at the dose of maximum T/C) of the same compound?
The mice cured was “no cures”.

What about the “maximum T/C” value ([1]; ip B16, ip QD 1→9) of the same compound?
The value was 174%.

What about the “Average Weight Change” value ([2]; 0.4 mg/kg/day ip) of the same compound?
The value was -2.0 g.

And the “Effect MST % T/C” value ([2]; 0.4 mg/kg/day ip)?
Its value is 121 % T/C.

And the “MST Days” value ([2]; 0.4 mg/kg/day ip)?
The value was 25.0 days.

What about the “Average Weight Change” value ([2]; 0.8 mg/kg/day ip) of the same compound?
Its value is -1.5 g.

What about the “Effect MST % T/C” value ([2]; 0.8 mg/kg/day ip) of the same compound?
The value was 139 % T/C.

What about the “MST Days” value ([2]; 0.8 mg/kg/day ip) of the same compound?
The value was 38.5 days.

And the “Average Weight Change” value ([2]; 1.6 mg/kg/day ip)?
Its value is -2.7 g.

What about the “Effect MST % T/C” value ([2]; 1.6 mg/kg/day ip) of the same compound?
The value was 173 % T/C.

And the “MST Days” value ([2]; 1.6 mg/kg/day ip)?
The value was 35.5 days.

And the “Survivors Day 10 (60)” value ([2]; 0.4 mg/kg/day ip)?
Its value is 8/10.

And the “Survivors Day 10 (60)” value ([2]; 0.8 mg/kg/day ip)?
The value was 10/10.

And the “Survivors Day 10 (60)” value ([2]; 1.6 mg/kg/day ip)?
Its value is 10/10.

What about the “Average Weight Change” value ([3]; 0.8 mg/kg/inj ip, qd 1→9) of the same compound?
The value was -0.4 g.

And the “Effect MST %TC” value ([3]; 0.8 mg/kg/inj ip, qd 1→9)?
Its value is 113 %TC.

What about the “MST Days” value ([3]; 0.8 mg/kg/inj ip, qd 1→9) of the same compound?
Its value is 34.5 days.

And the “Average Weight Change” value ([3]; 1.6 mg/kg/inj ip, qd 1→9)?
The value was -2.4 g.

And the “Effect MST %TC” value ([3]; 1.6 mg/kg/inj ip, qd 1→9)?
Its value is 118 %TC.

What about the “MST Days” value ([3]; 1.6 mg/kg/inj ip, qd 1→9) of the same compound?
Its value is 36.0 days.

And the “Average Weight Change” value ([3]; 2.4 mg/kg/inj ip, qd 1→9)?
Its value is -3.5 g.

And the “Effect MST %TC” value ([3]; 2.4 mg/kg/inj ip, qd 1→9)?
Its value is 97 %TC.

And the “MST Days” value ([3]; 2.4 mg/kg/inj ip, qd 1→9)?
Its value is 29.5 days.

And the “Average Weight Change” value ([3]; 4 mg/kg/inj iv, d.1, 5 & 9)?
Its value is -0.6 g.

What about the “Effect MST %TC” value ([3]; 4 mg/kg/inj iv, d.1, 5 & 9) of the same compound?
Its value is 156 %TC.

And the “MST Days” value ([3]; 4 mg/kg/inj iv, d.1, 5 & 9)?
The value was 47.5 days.

What about the “Average Weight Change” value ([3]; 6 mg/kg/inj iv, d.1, 5 & 9) of the same compound?
The value was -2.2 g.

What about the “Effect MST %TC” value ([3]; 6 mg/kg/inj iv, d.1, 5 & 9) of the same compound?
The value was 131 %TC.

And the “MST Days” value ([3]; 6 mg/kg/inj iv, d.1, 5 & 9)?
The value was 40.0 days.

What about the “Average Weight Change” value ([3]; 8 mg/kg/inj iv, d.1, 5 & 9) of the same compound?
Its value is -2.8 g.

And the “Effect MST %TC” value ([3]; 8 mg/kg/inj iv, d.1, 5 & 9)?
Its value is 125 %TC.

And the “MST Days” value ([3]; 8 mg/kg/inj iv, d.1, 5 & 9)?
The value was 38.0 days.

And the “Survivors Day 10 (60)” value ([3]; 8 mg/kg/inj iv, d.1, 5 & 9)?
Its value is 9/10.

And the T/C ([3]; given ip, sc-implanted B16 melanoma)?
Its T/C is “inactive”.

And the “maximum T/C” value ([3]; given iv, sc-implanted B16 melanoma)?
The value was 156%.

What about the “Average Weight Change,g” value ([4]; 0.4 mg/kg/inj ip, qd 1→9) of the same compound?
Its value is “+0.8 g”.

And the “Effect MST % T/C” value ([4]; 0.4 mg/kg/inj ip, qd 1→9)?
The value was 117 % T/C.

What about the “MST Days” value ([4]; 0.4 mg/kg/inj ip, qd 1→9) of the same compound?
The value was 7.0 days.

What about the “Survivors Day 5(30)” value ([4]; 0.4 mg/kg/inj ip, qd 1→9) of the same compound?
The value was 6/6.

And the “Average Weight Change,g” value ([4]; 0.8 mg/kg/inj ip, qd 1→9)?
The value was -0.8 g.

And the “Effect MST % T/C” value ([4]; 0.8 mg/kg/inj ip, qd 1→9)?
The value was 133 % T/C.

And the “MST Days” value ([4]; 0.8 mg/kg/inj ip, qd 1→9)?
The value was 8.0 days.

And the “Survivors Day 5(30)” value ([4]; 0.8 mg/kg/inj ip, qd 1→9)?
The value was 6/6.

And the “Average Weight Change,g” value ([4]; 1.6 mg/kg/inj ip, qd 1→9)?
The value was -2.5 g.

And the “Effect MST % T/C” value ([4]; 1.6 mg/kg/inj ip, qd 1→9)?
Its value is 200 % T/C.

What about the “MST Days” value ([4]; 1.6 mg/kg/inj ip, qd 1→9) of the same compound?
The value was 12.0 days.

And the “Survivors Day 5(30)” value ([4]; 1.6 mg/kg/inj ip, qd 1→9)?
The value was 6/6.

And the “Average Weight Change,g” value ([4]; 2.4 mg/kg/inj ip, qd 1→9)?
The value was -3.1 g.

And the “Effect MST % T/C” value ([4]; 2.4 mg/kg/inj ip, qd 1→9)?
Its value is 167 % T/C.

What about the “MST Days” value ([4]; 2.4 mg/kg/inj ip, qd 1→9) of the same compound?
Its value is 10.0 days.

What about the “Survivors Day 5(30)” value ([4]; 2.4 mg/kg/inj ip, qd 1→9) of the same compound?
The value was 6/6.

What about the “Average Weight Change,g” value ([4]; 4 mg/kg/inj ip, d.1) of the same compound?
Its value is -1.5 g.

What about the “Effect MST % T/C” value ([4]; 4 mg/kg/inj ip, d.1) of the same compound?
Its value is 167 % T/C.

And the “MST Days” value ([4]; 4 mg/kg/inj ip, d.1)?
The value was 10.0 days.

What about the “Survivors Day 5(30)” value ([4]; 4 mg/kg/inj ip, d.1) of the same compound?
Its value is 6/6.

And the “Average Weight Change,g” value ([4]; 6 mg/kg/inj ip, d.1)?
The value was -3.7 g.

And the “Effect MST % T/C” value ([4]; 6 mg/kg/inj ip, d.1)?
Its value is 167 % T/C.

And the “MST Days” value ([4]; 6 mg/kg/inj ip, d.1)?
Its value is 10.0 days.

And the “Survivors Day 5(30)” value ([4]; 6 mg/kg/inj ip, d.1)?
The value was 6/6.

And the “Average Weight Change,g” value ([4]; 8 mg/kg/inj ip, d.1)?
The value was -2.8 g.

What about the “Effect MST % T/C” value ([4]; 8 mg/kg/inj ip, d.1) of the same compound?
Its value is 158 % T/C.

And the “MST Days” value ([4]; 8 mg/kg/inj ip, d.1)?
Its value is 9.5 days.

What about the “Survivors Day 5(30)” value ([4]; 8 mg/kg/inj ip, d.1) of the same compound?
Its value is 6/6.

What about the “Average Weight Change,g” value ([4]; 10 mg/kg/inj ip, d.1) of the same compound?
The value was -2.0 g.

And the “Effect MST % T/C” value ([4]; 10 mg/kg/inj ip, d.1)?
The value was 208 % T/C.

And the “MST Days” value ([4]; 10 mg/kg/inj ip, d.1)?
Its value is 12.5 days.

And the “Survivors Day 5(30)” value ([4]; 10 mg/kg/inj ip, d.1)?
The value was 6/6.

And the “maximum T/C” value ([4]; qd 1→9, 1.6 mg/kg/inj)?
Its value is 200%.

And the “maximum T/C” value ([4]; single ip injections)?
The value was 208%.

What about the optimal doses ([4]; single ip injections, dose of maximum T/C) of the same compound?
The optimal doses was 10 mg/kg.

And the “Survivors Day 5(30)” value ([5]; 0.5 mg/kg/day ip)?
The value was 6/6.

What about the “Survivors Day 5(30)” value ([5]; 2 mg/kg/day ip) of the same compound?
Its value is 6/6.

And the “Average Weight Change” value ([5]; 6 mg/kg/day ip, d. 1 only, in saline)?
The value was −2.8.

What about the “Average Weight Change” value ([5]; 8 mg/kg/day ip, d. 1 only, in saline) of the same compound?
The value was −4.1.

What about the “Effect MST % T/C” value ([5]; 10 mg/kg/day ip, d. 1 only, in saline) of the same compound?
The value was 207 % T/C.
